According to paper PMC7719162, “Positioning of an unprecedented spiro[5.5]undeca ring system into kinase inhibitor space” (Scientific Reports, 2020):
Read-outs that look alike come from different tables or passages of the source.

How the values were obtained:
PKCa = biological target: T1, PKCa (Homo sapiens, UniProt P17252); conditions: cited from earlier work
T1 construct: purchased Reaction Biology Corp

RIPK5 = biological target: T2, RIPK5 (Homo sapiens, UniProt Q6XUX3); conditions: cited from earlier work
T2 construct: purchased Reaction Biology Corp
T2 sequence (Q6XUX3 1-929): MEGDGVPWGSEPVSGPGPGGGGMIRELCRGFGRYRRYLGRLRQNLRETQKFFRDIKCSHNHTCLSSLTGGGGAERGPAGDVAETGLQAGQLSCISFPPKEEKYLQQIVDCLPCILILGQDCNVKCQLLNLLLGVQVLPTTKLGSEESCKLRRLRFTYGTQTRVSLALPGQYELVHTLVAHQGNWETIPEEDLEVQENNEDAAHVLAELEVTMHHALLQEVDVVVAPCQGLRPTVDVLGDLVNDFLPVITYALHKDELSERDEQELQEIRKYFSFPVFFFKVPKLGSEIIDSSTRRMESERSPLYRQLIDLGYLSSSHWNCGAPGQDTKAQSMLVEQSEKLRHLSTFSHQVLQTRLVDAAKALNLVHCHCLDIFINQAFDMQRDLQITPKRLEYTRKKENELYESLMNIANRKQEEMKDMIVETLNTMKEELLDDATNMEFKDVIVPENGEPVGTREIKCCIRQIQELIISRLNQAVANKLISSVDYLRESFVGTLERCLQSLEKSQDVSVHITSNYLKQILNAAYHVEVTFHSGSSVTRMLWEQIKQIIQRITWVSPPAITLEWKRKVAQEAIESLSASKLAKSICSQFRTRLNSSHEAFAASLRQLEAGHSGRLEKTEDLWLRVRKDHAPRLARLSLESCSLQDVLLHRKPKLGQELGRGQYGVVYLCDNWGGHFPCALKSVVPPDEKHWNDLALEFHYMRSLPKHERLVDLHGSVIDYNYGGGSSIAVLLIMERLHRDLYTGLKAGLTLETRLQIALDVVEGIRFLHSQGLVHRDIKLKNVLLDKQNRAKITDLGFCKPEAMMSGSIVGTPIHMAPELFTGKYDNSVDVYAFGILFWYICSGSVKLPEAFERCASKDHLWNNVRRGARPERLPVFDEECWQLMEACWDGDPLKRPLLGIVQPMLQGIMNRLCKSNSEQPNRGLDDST

TRKC [1] = biological target: T3, TRKC (Homo sapiens, UniProt Q16288); conditions: cited from earlier work
T3 construct: purchased Reaction Biology Corp
T3 sequence (Q16288 32-839): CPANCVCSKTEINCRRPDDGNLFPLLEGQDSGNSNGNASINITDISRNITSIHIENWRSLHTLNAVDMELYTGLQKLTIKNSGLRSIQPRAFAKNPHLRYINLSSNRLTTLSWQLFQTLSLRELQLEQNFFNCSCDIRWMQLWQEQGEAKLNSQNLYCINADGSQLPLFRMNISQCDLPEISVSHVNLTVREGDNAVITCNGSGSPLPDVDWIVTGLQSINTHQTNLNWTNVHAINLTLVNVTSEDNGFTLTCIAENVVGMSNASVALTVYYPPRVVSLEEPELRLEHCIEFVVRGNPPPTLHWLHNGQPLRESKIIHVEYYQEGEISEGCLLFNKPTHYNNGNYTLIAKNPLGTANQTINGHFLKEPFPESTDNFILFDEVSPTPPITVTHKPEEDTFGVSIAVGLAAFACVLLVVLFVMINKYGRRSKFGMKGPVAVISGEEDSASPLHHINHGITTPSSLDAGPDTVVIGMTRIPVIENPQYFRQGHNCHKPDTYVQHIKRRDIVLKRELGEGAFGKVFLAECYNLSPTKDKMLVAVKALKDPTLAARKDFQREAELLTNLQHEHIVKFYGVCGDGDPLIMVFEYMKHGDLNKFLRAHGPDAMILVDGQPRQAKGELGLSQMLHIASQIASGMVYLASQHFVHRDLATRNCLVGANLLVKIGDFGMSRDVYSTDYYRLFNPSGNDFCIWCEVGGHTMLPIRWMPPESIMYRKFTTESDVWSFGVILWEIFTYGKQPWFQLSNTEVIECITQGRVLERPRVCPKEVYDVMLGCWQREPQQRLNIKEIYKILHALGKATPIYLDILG

Haspin = biological target: T4, Haspin (Homo sapiens, UniProt Q8TF76); conditions: cited from earlier work
T4 construct: purchased Reaction Biology Corp
T4 sequence (Q8TF76 1-798): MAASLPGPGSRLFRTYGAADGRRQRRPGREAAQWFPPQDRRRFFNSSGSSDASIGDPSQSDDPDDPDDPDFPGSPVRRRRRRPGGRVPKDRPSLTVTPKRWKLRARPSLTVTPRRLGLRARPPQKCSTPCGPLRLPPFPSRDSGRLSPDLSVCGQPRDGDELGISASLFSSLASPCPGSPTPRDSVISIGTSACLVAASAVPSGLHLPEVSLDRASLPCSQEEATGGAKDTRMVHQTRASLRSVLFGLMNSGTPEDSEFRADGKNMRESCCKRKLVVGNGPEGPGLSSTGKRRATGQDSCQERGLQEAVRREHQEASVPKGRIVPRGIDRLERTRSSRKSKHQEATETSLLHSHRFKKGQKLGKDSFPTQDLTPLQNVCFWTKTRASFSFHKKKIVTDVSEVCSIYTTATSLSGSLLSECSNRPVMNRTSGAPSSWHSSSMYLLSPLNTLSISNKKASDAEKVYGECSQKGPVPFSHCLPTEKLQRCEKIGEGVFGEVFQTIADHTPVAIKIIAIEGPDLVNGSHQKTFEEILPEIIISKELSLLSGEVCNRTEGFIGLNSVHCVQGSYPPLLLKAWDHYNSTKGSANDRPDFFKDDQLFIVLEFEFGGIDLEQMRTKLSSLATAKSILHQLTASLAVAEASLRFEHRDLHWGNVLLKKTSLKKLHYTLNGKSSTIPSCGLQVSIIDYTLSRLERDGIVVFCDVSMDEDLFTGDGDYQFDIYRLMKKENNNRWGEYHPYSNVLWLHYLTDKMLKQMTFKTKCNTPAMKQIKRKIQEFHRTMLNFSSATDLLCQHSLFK

MST3/STK24 = biological target: T5, MST3/STK24 (Homo sapiens, UniProt Q9Y6E0); conditions: cited from earlier work
T5 construct: purchased Reaction Biology Corp
T5 sequence (Q9Y6E0 whole entry): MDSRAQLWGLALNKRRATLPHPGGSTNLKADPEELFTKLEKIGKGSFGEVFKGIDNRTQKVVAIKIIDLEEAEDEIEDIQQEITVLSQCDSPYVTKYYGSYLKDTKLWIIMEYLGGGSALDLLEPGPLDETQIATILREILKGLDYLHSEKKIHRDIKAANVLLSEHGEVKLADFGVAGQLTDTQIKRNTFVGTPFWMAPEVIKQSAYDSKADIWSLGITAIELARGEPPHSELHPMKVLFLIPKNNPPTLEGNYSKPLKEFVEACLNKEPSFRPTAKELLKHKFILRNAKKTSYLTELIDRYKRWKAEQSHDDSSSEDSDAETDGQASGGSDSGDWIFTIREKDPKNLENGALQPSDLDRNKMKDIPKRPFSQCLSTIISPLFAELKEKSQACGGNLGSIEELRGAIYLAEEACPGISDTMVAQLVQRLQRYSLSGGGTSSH

CDK1/cyclin B = biological target: T6, CDK1/cyclin B (Homo sapiens, UniProt P06493); assay: Kinase panel assay (radiolabelled); type: biochemical; conditions: ATP 10 μM
T6 construct: purchased Reaction Biology Corp
T6 sequence (P06493 whole entry): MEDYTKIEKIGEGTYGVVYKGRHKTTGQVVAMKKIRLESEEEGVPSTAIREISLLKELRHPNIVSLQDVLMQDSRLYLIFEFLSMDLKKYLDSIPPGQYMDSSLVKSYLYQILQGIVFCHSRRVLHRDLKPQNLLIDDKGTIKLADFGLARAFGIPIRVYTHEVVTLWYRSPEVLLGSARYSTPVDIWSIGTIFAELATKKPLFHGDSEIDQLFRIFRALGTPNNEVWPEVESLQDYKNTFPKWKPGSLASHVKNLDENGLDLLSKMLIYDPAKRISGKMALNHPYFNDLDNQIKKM
T6 sequence (P14635 whole entry partner): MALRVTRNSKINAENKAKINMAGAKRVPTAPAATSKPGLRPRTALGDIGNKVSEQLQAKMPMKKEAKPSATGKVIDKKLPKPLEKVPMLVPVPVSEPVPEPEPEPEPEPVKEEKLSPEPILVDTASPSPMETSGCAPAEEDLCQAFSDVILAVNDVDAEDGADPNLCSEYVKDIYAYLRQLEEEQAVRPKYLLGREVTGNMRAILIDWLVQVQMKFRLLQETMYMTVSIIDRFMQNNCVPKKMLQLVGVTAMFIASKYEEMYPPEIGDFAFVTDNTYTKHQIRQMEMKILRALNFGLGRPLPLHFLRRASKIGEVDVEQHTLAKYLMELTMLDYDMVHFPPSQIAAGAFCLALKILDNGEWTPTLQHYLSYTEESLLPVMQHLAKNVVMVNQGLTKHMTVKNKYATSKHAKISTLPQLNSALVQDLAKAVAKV

AMPK(A2/B2/G2) [2] = biological target: T7, AMPK(A2/B2/G2) (Homo sapiens, UniProt O43741+P54646+Q9UGJ0); assay: Kinase panel assay (radiolabelled); type: biochemical; conditions: 30 μM compound, ATP 10 μM; duplicates Data 1/Data 2; read-out: % Enzyme Activity (relative to DMSO controls)
T7 construct: purchased Reaction Biology Corp

AMPK(A2/B2/G2) [3] = biological target: T8, AMPK(A2/B2/G2) (Homo sapiens, UniProt P54646); assay: Kinase panel assay (radiolabelled); type: biochemical; conditions: 30 μM compound, ATP 10 μM; duplicates Data 1/Data 2
T8 construct: purchased Reaction Biology Corp

AMPK(A2/B2/G1) [4] = biological target: T9, AMPK(A2/B2/G1) (Homo sapiens, UniProt P54646); assay: Kinase panel assay (radiolabelled); type: biochemical; conditions: 30 μM compound, ATP 10 μM; duplicates Data 1/Data 2
T9 construct: purchased Reaction Biology Corp

AMPK(A2/B2/G1) [5] = biological target: T10, AMPK(A2/B2/G1) (Homo sapiens, UniProt O43741+P54619+P54646); assay: Kinase panel assay (radiolabelled); type: biochemical; conditions: 30 μM compound, ATP 10 μM; duplicates Data 1/Data 2; read-out: % Enzyme Activity (relative to DMSO controls)
T10 construct: purchased Reaction Biology Corp

JNK1 = biological target: T11, JNK1 (Homo sapiens, UniProt P45983); assay: Kinase panel assay (radiolabelled); type: biochemical; conditions: ATP 10 μM
T11 construct: purchased Reaction Biology Corp
T11 sequence (P45983 whole entry): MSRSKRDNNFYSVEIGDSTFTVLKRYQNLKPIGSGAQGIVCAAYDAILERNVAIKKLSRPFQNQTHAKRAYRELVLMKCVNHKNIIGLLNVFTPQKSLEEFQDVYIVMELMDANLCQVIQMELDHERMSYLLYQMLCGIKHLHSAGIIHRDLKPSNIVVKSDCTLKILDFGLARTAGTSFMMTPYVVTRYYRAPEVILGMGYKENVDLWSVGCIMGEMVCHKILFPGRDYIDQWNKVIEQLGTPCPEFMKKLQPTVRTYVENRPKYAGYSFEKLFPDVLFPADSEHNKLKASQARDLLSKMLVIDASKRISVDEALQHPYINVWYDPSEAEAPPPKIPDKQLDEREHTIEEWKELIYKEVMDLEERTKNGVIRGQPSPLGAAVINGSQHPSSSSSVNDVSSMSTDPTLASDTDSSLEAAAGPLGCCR

SPHK1 = biological target: T12, SPHK1 (Homo sapiens, UniProt Q9NYA1); assay: Kinase panel assay (lipid kinase); type: biochemical; conditions: 30 μM compound, ATP 10 μM, duplicates Data 1/Data 2
T12 construct: purchased Reaction Biology Corp
T12 sequence (Q9NYA1 whole entry): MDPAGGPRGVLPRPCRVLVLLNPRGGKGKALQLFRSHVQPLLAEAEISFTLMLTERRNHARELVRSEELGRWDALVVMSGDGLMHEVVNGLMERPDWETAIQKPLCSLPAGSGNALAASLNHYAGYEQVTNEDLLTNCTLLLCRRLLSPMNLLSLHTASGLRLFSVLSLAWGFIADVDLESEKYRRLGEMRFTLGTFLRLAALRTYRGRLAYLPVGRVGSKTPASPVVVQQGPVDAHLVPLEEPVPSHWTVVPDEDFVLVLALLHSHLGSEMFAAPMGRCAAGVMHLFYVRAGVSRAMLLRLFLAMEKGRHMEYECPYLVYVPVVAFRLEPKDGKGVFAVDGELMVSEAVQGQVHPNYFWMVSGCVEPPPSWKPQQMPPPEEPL

mTOR/FRAP1 = biological target: T13, mTOR/FRAP1 (Homo sapiens, UniProt P42345); assay: Kinase panel assay (radiolabelled); type: biochemical; conditions: 30 μM compound, ATP 10 μM, duplicates Data 1/Data 2
T13 construct: purchased Reaction Biology Corp

TRKC (G623R/L686M) = biological target: T14, TRKC (G623R/L686M) (Homo sapiens, UniProt Q16288, G623R/L686M); assay: Kinase panel assay (radiolabelled); type: biochemical; conditions: 30 μM compound, ATP 10 μM, duplicates Data 1/Data 2
T14 construct: purchased Reaction Biology Corp
T14 sequence (Q16288 32-839 G623R/L686M): as the sequence (Q16288 32-839) above, with G592R, L655M counted along it

AMPK(A2/B2/G3) [6] = biological target: T15, AMPK(A2/B2/G3) (Homo sapiens, UniProt P54646); assay: Kinase panel assay (radiolabelled); type: biochemical; conditions: 30 μM compound, ATP 10 μM; duplicates Data 1/Data 2
T15 construct: purchased Reaction Biology Corp
T15 sequence (P54646 whole entry): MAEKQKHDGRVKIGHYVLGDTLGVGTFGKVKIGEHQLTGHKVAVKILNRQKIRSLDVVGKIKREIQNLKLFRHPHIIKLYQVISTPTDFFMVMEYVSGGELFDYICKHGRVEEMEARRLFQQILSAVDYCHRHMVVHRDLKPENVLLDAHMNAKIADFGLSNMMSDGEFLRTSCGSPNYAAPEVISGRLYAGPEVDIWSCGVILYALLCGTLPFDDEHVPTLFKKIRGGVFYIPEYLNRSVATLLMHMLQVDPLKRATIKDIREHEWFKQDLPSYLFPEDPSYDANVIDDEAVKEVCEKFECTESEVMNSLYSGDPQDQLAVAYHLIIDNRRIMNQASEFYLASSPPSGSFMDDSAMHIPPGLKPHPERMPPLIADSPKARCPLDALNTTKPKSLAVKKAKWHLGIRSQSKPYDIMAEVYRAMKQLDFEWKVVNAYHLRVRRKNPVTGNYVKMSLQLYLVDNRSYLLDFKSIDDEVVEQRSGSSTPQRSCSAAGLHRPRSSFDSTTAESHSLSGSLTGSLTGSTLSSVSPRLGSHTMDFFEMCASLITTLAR
T15 sequence (O43741 whole entry partner): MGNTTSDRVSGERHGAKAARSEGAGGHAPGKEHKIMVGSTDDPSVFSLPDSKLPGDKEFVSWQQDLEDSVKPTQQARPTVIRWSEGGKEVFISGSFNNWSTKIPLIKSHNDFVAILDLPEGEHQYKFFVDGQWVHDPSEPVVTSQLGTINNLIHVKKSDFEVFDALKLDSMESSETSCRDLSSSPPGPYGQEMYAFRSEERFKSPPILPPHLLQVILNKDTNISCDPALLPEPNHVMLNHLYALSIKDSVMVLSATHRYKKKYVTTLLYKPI
T15 sequence (Q9UGI9 whole entry partner): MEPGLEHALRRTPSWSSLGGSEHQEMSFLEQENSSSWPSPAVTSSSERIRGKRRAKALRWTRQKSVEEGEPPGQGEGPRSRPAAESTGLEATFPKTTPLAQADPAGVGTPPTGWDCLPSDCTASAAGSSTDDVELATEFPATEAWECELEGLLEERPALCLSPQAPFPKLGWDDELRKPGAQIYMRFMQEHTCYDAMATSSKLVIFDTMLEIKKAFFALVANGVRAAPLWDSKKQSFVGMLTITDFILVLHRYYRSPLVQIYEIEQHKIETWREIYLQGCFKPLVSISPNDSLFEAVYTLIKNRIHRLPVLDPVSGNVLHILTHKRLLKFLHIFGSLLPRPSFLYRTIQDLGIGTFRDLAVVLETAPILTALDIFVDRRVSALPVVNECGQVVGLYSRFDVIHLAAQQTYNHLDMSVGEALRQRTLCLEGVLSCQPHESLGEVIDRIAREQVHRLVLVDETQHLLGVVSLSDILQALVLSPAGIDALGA

AMPK(A2/B2/G3) [7] = biological target: T16, AMPK(A2/B2/G3) (Homo sapiens, UniProt O43741+P54646+Q9UGI9); assay: Kinase panel assay (radiolabelled); type: biochemical; conditions: 30 μM compound, ATP 10 μM; duplicates Data 1/Data 2; read-out: % Enzyme Activity (relative to DMSO controls)
T16 construct: purchased Reaction Biology Corp
T16 sequence (P54646 whole entry): as the sequence (P54646 whole entry) above
T16 sequence (O43741 whole entry partner): as the sequence (O43741 whole entry partner) above
T16 sequence (Q9UGI9 whole entry partner): as the sequence (Q9UGI9 whole entry partner) above

TRKC [8] = biological target: T3, TRKC; assay: Kinase panel assay (radiolabelled); type: biochemical; conditions: ATP 10 μM
[9] = 30 μM compound, duplicates Data 1/Data 2
[10] = 30 μM compound, duplicates Data 1/Data 2, read-out: % Enzyme Activity (relative to DMSO controls)
[11] = 30 μM, average ± SD, read-out: % Residual Activity at 30 μM
[12] = read-out: % Enzyme Activity (relative to DMSO controls)

O=C1C=CC2(C=C1)OCC(Cc1cc(C(F)(F)F)cc(C(F)(F)F)c1)C(=O)N2c1ccccc1 (racemic) [1c]
% Residual Activity at 30 μM (PKCa): 45.6 ± 1.2%
% Residual Activity at 30 μM (RIPK5): 59.3 ± 1.0%
% Residual Activity at 30 μM (TRKC [1]): 97.9 ± 0.2%
% Residual Activity at 30 μM (Haspin): 66.4 ± 0.5%
% Residual Activity at 30 μM (MST3/STK24): 58.3 ± 0.7%

O=C1C=CC2(C=C1)OCC(Cc1cn(-c3cccc(Cl)c3)nn1)C(=O)N2c1ccccc1 (centres unmarked) [2d, 3-((1-(3-Chlorophenyl)-1H-1,2,3-triazol-4-yl)methyl)-5-phenyl-1-oxa-5-azaspiro[5.5]undeca-7,10-diene-4,9-dione]
% Enzyme Activity (relative to DMSO controls) (CDK1/cyclin B; [9]): 58.64%
remaining activity at 30 µM (CDK1/cyclin B; [10]): 59.3%
remaining activity at 30 µM (CDK1/cyclin B; [11]): 59 ± 0.5%
remaining activity at 30 µM (AMPK(A2/B2/G2) [2]): 114%
% Enzyme Activity (relative to DMSO controls) (AMPK(A2/B2/G2) [3]): 111.36%
% Enzyme Activity (relative to DMSO controls) (AMPK(A2/B2/G1) [4]): 89.86%
remaining activity at 30 µM (AMPK(A2/B2/G1) [5]): 94%
% Enzyme Activity (relative to DMSO controls) (JNK1; [9]): 82.67%
remaining activity at 30 µM (JNK1; [10]): 82.7%
remaining activity at 30 µM (JNK1; [11]): 82.7 ± 0.1%
% Enzyme Activity (relative to DMSO controls) (SPHK1): 77.68%
remaining activity at 30 µM (SPHK1; [12]): 80.5%
% Enzyme Activity (relative to DMSO controls) (mTOR/FRAP1): 96.09%
remaining activity at 30 µM (mTOR/FRAP1; [12]): 103%
% Enzyme Activity (relative to DMSO controls) (TRKC (G623R/L686M)): 95.31%
remaining activity at 30 µM (TRKC (G623R/L686M); [12]): 96%
% Enzyme Activity (relative to DMSO controls) (AMPK(A2/B2/G3) [6]): 88.96%
remaining activity at 30 µM (AMPK(A2/B2/G3) [7]): 95.8%
% Enzyme Activity (relative to DMSO controls) (TRKC [8]; [9]): 102.60%
remaining activity at 30 µM (TRKC [8]; [10]): 108%
remaining activity at 30 µM (TRKC [8]; [11]): 105 ± 3.9%
